# Test results: patent US8354265B2, “Chemicals promoting the growth of N-acylhomoserine lactone-degrading bacteria” (Centre National de la Recherche Scientifique, priority 2007, dated 2013)
# What was measured:
# [1] = test system: NAHL-degrading rhizobacteria; assay: Diversity of NAHL-degrading rhizobacteria after 6CL and GCL treatments, rrs sequencing (Table 2); format: in vivo, Solanum tuberosum; conditions: isolates of treated batches
# [2] = test system: NAHL-degrading rhizobacteria; assay: as above; format: in vivo, Solanum tuberosum
# Experimental: (§1) The non sterile batches (40×60×8 cm) contained 13 L of the nutritive solution Hydrobloom (Cellmax, UK) with Nitrogen at 0.80 g/L, Phosphore at 0.56 g/L and Potassium at 1.48 g/L as major components. The solution was diluted from a concentrated stock solution (×250) with non sterile water from the public water system. One hundred plants of Solanum tuberosum var. Allians, which were recovered from cultures performed under sterile conditions, were placed into holes (3 cm space to each other) of batch covers. Planted batches were placed in the greenhouse (Comité Nord Plants de Pomme de Terre, Bretteville-du-Grand-Caux) under natural light at 10-15° C. (night) and 25-30° C. (day). […] An untreated batch was used as a control. One gram of roots (fresh weight) was resuspended in 10 mL of sterile MgSO4 10 mM, diluted and spread on TSA and King B plates to isolate total cultivable bacteria and fluorescent Pseudomonas, respectively. Three samples were analyzed from each batch at each time D0, D14 and D28; from each sample, thirty isolates from TSA plates and thirty fluorescent isolates from King B plates were individually tested from production and inactivation of NAHL signal.
# The 5′-end of the rrs gene was amplified with primers pA (5′-[…]) (SEQ ID NO:1) and 518r (5′-[…]) (SEQ ID NO:2), and sequenced with pA primer by GenomeExpress (Meylan, France). At least 400 bp were submitted to the NCBI database. Although some sequence comparisons authorized identification of isolates at the species level, only the genus level was retained in this study for homogeneity.
# The isolates were identified by rrs-sequencing (Table 2). At D0, most of the NAHL-degrading isolates were identified as Delftia. However, at D14 and D28, the Agrobacterium isolates dominated in untreated batches, while they were not detected in the treated batches. In those, the more frequently counted bacteria were Delftia and Rhodococcus.
# [3] = test system: NAHL-degrading rhizobacteria of potato rhizosphere; assay: Preliminary experiment in planted hydroponic batches: level and diversity of NAHL-degrading rhizobacteria (Table 1); format: in vivo, Solanum tuberosum var. Allians
# Experimental: as §1
# (§2) Bacterial isolates grown in 96-microwell plates were individually tested from production of NAHL with the A. tumefaciens biosensor NT1 (pZNLR4) and the inactivation of the C6-HSL signal, as described previously (d'Angelo-Picard et al. 2004).
# At least 400 bp were submitted to the NCBI database.
# [4] = test system: bacterial consortia originating from rhizospheric soil; assay: C6-HSL inactivation by bacterial consortia enriched from rhizospheric soil; format: cell-based
# [5] = test system: bacterial consortia from unplanted soil; assay: C6-HSL inactivation by bacterial consortia enriched from unplanted soil on the compound as sole carbon source; format: cell-based; conditions: soil and rhizospheric samples; among 25 assayed molecules
# [6] = test system: bacteria recovered from the consortia; assay: NAHL production and inactivation by isolates recovered from the consortia, with rrs identification; format: cell-based
# young plants = assay: Sensitivity of young plants to the chemicals; conditions: high concentrations (1 mL/L); data not shown
# bacterial consortia = assay: Inactivation of C6-HSL and OC8-HSL by mannitol, 6CL, GCL and HTN consortia; format: cell-based
# Description: The Mannitol-, 6CL-, GCL-, and HTN-consortia were compared for their capacity to inactivated OC8-HSL, the major NAHL produced by the plant pathogen Erwinia carotovora subsp. atroseptica 6276, as well as for their biocontrol activity against this pathogen in potato maceration assay.
# [7] = test system: acyl-HSL degrading strains of potato rhizosphere; assay: GCL treatment of potato plants in long-term hydroponic culture (FIG. 12); format: in vivo, Solanum tuberosum; parameters: dose or concentration left out as unconfirmed; conditions: 0.4 at D0, D18 and D49; at D28, D49 and D56
# Experimental: The plants were cultivated in hydroponic batches from D0 to D17, then transferred into hydroponic system allowing the long term culture until tuberisation. At each time, three samples (D0 and D7) and four samples (D28, D49 and D56) were analyzed: the number of CFU/g of roots was estimated (B), as well as the percentage of acyl-HSL-producing (C) and acyl-HSL degrading strains. Different letters indicate a significative difference (Student's t-test; α=0.05) between the two conditions, untreated and GCL-treated.
# The plants were cultivated in hydroponic batches from D0 to D17, then transferred into hydroponic system allowing the long term culture until tuberisation.
# [8] = test system: NAHL-degrading and NAHL-producing bacteria of potato rhizosphere; assay: Two independent analyses of 6CL and GCL treatments on planted batches (FIG. 7); format: in vivo, Solanum tuberosum var. Allians
# Description: FIG. 7: Percentage of NAHL-degrading and NAHL-producing strains in potato rhizosphere. […] An untreated batch was used as a control in the two independent sets of experiments. The mean of three replicates is shown. Statistically different values (Student t test; 0.05) are noted by different letters.
# as §1, §2
# An untreated batch was used as a control.
compound,measurement,setting,value
"CCC1CCC(=O)O1 (centres unmarked) [GCL, gamma-caprolactone]",growth of Delftia and Rhodococcus isolates on the compound as a sole carbon source,[1],grew on GCL as a sole carbon source
same,rrs-identified NAHL-degraders: Delftia,"[2]; D14 and D28, 0.1 mL/L",16
same,rrs-identified NAHL-degraders: Others,"[2]; D14 and D28, 0.1 mL/L",2
same,rrs-identified NAHL-degraders: Pseudomonas,"[2]; D14 and D28, 0.1 mL/L",1
same,rrs-identified NAHL-degraders: Rhizobium,"[2]; D14 and D28, 0.1 mL/L",1
same,rrs-identified NAHL-degraders: Rhodococcus,"[2]; D14 and D28, 0.1 mL/L",60
same,rrs-identified NAHL-degraders: Delftia,"[2]; D14 and D28, 0.4 mL/L",9
same,rrs-identified NAHL-degraders: Pseudomonas,"[2]; D14 and D28, 0.4 mL/L",1
same,rrs-identified NAHL-degraders: Rhodococcus,"[2]; D14 and D28, 0.4 mL/L",96
same,percentage of A. tumefaciens isolates among the NAHL-degrading rhizobacteria,[2]; after GCL-treatments,decrease
same,Log CFU/gram of root (fresh weight),[3]; D0 (before treatment),8.0 ± 7.5 Log CFU/gram of root (fresh we
same,NAHL degraders (%),[3]; D0 (before treatment),16.7 ± 0.1 %
same,NAHL producers (%),[3]; D0 (before treatment),6.7 ± 1.0%
same,rrs-identified NAHL-degraders: Delftia,"[3]; D0, of 8 isolates",3
same,rrs-identified NAHL-degraders: Pseudomonas,"[3]; D0, of 8 isolates",2
same,rrs-identified NAHL-degraders: Rhodococcus,"[3]; D0, of 8 isolates",3
same,Log CFU/gram of root (fresh weight),"[3]; D28, 0.1 mL/L",10.5 ± 9.8 Log CFU/gram of root (fresh we
same,NAHL degraders (%),"[3]; D28, 0.1 mL/L",33.3 ± 4.0 %
same,NAHL producers (%),"[3]; D28, 0.1 mL/L",11.1 ± 1.5%
same,identified genera of NAHL-degrading bacteria,"[3]; D28, 0.1 mL/L",3
same,rrs-identified NAHL-degraders: Bacillus,"[3]; D28, 0.1 mL/L, of 8 isolates",1
same,rrs-identified NAHL-degraders: Delftia,"[3]; D28, 0.1 mL/L, of 8 isolates",2
same,rrs-identified NAHL-degraders: Rhodococcus,"[3]; D28, 0.1 mL/L, of 8 isolates",5
same,activity of consortia towards C6-HSL (ranking),[4],the most active
same,growth stimulation of NAHL-degrading bacteria after enrichment procedures,[5],stimulated the growth of NAHL-degrading bacteria
same,NAHL-inactivating bacteria recovered from consortia,[6],recovered
same,NAHL-degrading isolates related to Chryseobacterium,[6]; 6CL and GCL consortia together,10%
same,NAHL-degrading isolates related to Delftia,[6]; 6CL and GCL consortia together,80 % of the identified strains
same,NAHL-degrading isolates related to Ralstonia,[6]; 6CL and GCL consortia together,3%
same,NAHL-degrading isolates related to Rhodococcus,[6]; 6CL and GCL consortia together,7%
same,NAHL-producing bacteria among isolates of the consortia,[6]; 280 isolates from 280 independent enrichments,none
same,sensitivity of young plants,young plants,sensitive
same,speed of C6-HSL signal inactivation versus Mannitol consortia,bacterial consortia,inactivated more rapidly
same,speed of OC8-HSL signal inactivation versus Mannitol consortia,bacterial consortia,inactivated more rapidly
same,effect on the percentage of acyl-HSL degraders,[7],clear effect
same,cell density (CFU/g of root),"[8]; 14 days after application at 0.4 mL/L, two experiments",consistently increased
same,level of NAHL-degrading bacteria among fluorescent Pseudomonads,[8]; after GCL-treatments,no modification
same,percentage of NAHL-degrading bacteria among total cultivable bacteria,[8]; applied to hydroponic plant cultures (FIG. 7),significant increase
